In patent US8546389B2 (priority 2010, dated 2013):
Read-outs that look alike come from different tables or passages of the source.

Assays:
[1] = molecular target: 1b (BK) NS5bΔ21 (Hepatitis C virus genotype 1b (isolate BK) (HCV), UniProt P26663); experiment: HCV polymerase inhibition assay, genotype 1b; type: biochemical, HCV genotype 1b (BK)
Outline: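 Both genotype 1b and 3a enzymes assayed identically: ^33P-GTP incorporation on poly(rC) template, GTP at Km, 50 nM NS5bΔ21, pH 7.5 Tris with 5 mM MgCl2 and MnCl2, 1 h reaction ended by cold EDTA. Filter-bound label counted; IC50 fitted by non-linear regression across three-fold dilution series.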

[2] = molecular target: genotype 3a (VRL-69) NS5bΔ21 polymerase (Hepatitis C virus genotype 3a, UniProt Q81258); experiment: HCV polymerase inhibition assay, genotype 3a; type: biochemical, HCV genotype 3a (VRL-69); details: genotype 3a; read-out: 3a NS5b polymerase IC50
Chain of genotype 3a (VRL-69) NS5bΔ21 polymerase (Q81258 whole entry, looked up, stated change not applied): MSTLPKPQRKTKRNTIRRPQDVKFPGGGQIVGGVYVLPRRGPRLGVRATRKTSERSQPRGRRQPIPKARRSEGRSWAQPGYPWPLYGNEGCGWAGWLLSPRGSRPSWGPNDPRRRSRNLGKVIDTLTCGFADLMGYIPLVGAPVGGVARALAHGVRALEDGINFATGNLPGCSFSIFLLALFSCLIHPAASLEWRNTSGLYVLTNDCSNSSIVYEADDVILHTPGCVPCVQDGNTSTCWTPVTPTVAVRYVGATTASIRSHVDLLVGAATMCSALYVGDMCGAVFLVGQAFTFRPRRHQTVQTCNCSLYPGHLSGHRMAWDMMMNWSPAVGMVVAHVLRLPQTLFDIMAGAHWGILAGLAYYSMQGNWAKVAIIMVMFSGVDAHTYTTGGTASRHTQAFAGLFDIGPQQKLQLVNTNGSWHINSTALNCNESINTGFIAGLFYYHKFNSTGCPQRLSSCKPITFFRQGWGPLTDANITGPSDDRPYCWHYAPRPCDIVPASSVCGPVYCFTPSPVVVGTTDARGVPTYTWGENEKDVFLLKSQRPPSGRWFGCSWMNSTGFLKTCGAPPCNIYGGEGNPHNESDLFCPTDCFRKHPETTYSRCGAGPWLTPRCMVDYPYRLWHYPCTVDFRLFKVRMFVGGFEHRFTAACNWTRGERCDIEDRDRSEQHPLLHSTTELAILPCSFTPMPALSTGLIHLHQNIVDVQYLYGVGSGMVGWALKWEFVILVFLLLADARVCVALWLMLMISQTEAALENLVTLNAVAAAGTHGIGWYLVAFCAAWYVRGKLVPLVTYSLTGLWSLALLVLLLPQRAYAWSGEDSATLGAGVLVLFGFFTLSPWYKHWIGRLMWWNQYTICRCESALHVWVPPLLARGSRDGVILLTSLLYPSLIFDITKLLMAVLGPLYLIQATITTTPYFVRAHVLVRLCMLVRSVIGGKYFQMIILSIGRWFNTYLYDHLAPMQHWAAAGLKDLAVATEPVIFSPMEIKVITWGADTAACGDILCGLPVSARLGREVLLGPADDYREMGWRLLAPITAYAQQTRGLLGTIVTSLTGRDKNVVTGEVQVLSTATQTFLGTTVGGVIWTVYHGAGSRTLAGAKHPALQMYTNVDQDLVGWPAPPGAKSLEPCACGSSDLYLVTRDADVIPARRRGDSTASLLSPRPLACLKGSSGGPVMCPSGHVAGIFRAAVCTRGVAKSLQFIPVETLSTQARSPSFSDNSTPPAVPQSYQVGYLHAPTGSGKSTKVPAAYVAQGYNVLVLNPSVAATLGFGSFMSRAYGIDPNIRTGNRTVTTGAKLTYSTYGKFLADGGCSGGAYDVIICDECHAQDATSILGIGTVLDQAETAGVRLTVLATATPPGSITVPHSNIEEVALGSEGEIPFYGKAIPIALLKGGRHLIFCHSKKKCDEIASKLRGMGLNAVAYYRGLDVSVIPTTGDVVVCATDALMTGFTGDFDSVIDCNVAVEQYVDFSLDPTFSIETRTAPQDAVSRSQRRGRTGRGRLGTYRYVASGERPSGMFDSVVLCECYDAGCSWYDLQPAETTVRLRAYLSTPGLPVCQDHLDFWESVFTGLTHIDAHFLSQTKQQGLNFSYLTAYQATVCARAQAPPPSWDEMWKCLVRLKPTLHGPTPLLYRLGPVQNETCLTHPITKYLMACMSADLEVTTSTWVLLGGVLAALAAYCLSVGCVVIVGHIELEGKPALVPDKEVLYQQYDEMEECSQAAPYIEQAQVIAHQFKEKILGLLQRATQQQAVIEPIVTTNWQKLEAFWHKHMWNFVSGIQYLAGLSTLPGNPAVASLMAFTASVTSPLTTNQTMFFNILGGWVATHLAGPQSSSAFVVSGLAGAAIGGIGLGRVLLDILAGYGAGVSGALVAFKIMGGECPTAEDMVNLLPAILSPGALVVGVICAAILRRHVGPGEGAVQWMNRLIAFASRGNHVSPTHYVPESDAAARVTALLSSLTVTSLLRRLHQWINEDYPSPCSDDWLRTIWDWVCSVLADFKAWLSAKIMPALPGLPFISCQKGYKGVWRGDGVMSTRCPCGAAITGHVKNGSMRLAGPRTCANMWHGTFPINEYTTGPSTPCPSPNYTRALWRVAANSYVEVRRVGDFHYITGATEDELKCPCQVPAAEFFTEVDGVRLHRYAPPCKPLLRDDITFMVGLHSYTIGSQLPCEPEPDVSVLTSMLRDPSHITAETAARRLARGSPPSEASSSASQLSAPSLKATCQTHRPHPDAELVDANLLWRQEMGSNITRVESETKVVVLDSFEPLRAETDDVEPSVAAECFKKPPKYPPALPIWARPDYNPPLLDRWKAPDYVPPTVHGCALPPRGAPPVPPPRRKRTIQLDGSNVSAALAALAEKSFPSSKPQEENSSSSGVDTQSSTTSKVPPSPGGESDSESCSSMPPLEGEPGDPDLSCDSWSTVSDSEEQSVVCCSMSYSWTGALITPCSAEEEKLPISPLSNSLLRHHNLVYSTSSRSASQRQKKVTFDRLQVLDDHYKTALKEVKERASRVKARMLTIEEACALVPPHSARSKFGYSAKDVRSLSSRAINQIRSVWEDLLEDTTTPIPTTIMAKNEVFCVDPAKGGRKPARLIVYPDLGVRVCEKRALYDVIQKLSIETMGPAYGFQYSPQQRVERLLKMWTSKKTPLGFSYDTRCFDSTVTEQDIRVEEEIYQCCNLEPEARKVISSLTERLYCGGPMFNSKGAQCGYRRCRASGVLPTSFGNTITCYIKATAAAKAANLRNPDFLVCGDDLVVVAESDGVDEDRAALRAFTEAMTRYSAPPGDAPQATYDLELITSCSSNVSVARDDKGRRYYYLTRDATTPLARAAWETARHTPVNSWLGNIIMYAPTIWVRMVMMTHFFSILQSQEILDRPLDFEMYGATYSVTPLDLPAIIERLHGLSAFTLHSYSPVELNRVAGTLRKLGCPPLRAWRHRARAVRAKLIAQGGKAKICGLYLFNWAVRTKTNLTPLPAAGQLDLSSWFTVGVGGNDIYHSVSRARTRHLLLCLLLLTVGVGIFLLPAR
Method: HCV polymerase reactions were carried out using a modified method of Howe et al., Antimicrobial Agents and Chemotherapy 2004 48(12): 4813-4821. Reactions contained a final concentration of, 0.5% DMSO, 50 nM, 1b (BK) NS5bΔ21, 20 mM Tris-HCl pH 7.5, 5 mM MgCl2, 5 mM MnCl2, 3 mM DTT, 0.05% BSA, 0.2 U/μL RNasin, 10 μg/mL Poly(rC) template, GTP (at Km) and 0.05 μCi/μL ^33P-GTP in a total reaction volume of 50 μL. Compounds were tested in a three fold dilution series, for example starting from 50 μM. Reactions were initiated with the addition of GTP and terminated after 1 hour with 50 μL ice cold 0.2 M EDTA. Terminated reactions were transferred to DEAE 96-well filter plates, unincorporated nucleotides washed from the filters and 50 μL scintillation fluid added prior to reading on a scintillation counter. Similarly, a genotype 3a (VRL-69) NS5bΔ21 polymerase enzyme assay was conducted using essentially the same method.
The compound concentration that reduced ^33P-GTP incorporation by 50% (IC50) was calculated using non-linear regression.

[3] = system: genotype 1b (Con 1) subgenomic replicon cell line; experiment: HCV replicon assay, genotype 1b (Renilla luciferase); type: cell-based, HCV genotype 1b (Con 1); details: Hepatitis C virus, genotype 1b replicon
Outline: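 Subgenomic replicon cells expressing Renilla luciferase (1b Con1; 1a and 2a lines by the same method) seeded at 7000 cells/well (5000 for 2a) without G418, exposed to 3-fold compound dilutions for 72 h at 37 °C. Luciferase activity measured; EC50 by non-linear regression.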

[4] = system: subgenomic genotype 1a replicon cell line; experiment: HCV replicon assay, genotype 1a; type: cell-based, HCV genotype 1a; details: Hepatitis C virus
Method: (§1) A genotype 1b (Con 1) subgenomic replicon cell line based on Blight et al., Science 2000 290: 1972-1974, modified to express a Renilla luciferase reporter gene was used to assess antiviral activity of test compounds. Cell cultures were maintained in a sub-confluent state in DMEM with glutamine, 10% heat-inactivated foetal bovine serum (FBS) and G418 (Geneticin®).
(§2) For assay, cells were seeded at a density of 7000 cells/well into 96 well tissue culture trays in culture media lacking G418. Compounds were tested in a three fold dilution series, for example starting from 50 uM. After 72 hours incubation at 37° C. and 5% CO2, Renilla luciferase activity was quantified via the Promega Renilla Luciferase or Renilla-Glo™ Luciferase Assay Systems (Promega corporation. The same method was employed for replicon assays using subgenomic genotype 1a and 2a replicon cell lines with a seeding cell density of 5000 cells/well for the 2a cell lines.
(§3) The compound concentration that reduced luciferase activity by 50% (EC50) was calculated using non-linear regression.

[5] = system: subgenomic genotype 2a replicon cell line; experiment: HCV replicon assay, genotype 2a; type: cell-based, HCV genotype 2a; details: Hepatitis C virus
Method: as §1, §2, §3

[6] = system: genotype 1b (Con 1) subgenomic replicon cell line; experiment: Combination studies in replicon cells (MacSynergy II); type: cell-based, HCV genotype 1b (Con 1)
Method: as §1, with “synergy” for “antiviral activity”
For assay, cells were seeded at a density of 7000 cells/well into 96 well tissue culture trays in culture media lacking G418. The compound concentration that reduced luciferase activity by 50% (EC50) was determined independently for each compound and used to set the range of concentrations for the combination experiments. […] The ratio of the 2 compounds tested remained fixed across the titration range. […] After 72 hours incubation at 37° C. and 5% CO2, Renilla luciferase activity was quantified via the Promega Renilla Luciferase Assay System.
Results were analysed and levels of synergy assessed via generation of 3D synergy plots using MacSynergy™ II (Prichard, M. N., K. R. Aseltine, and C. Shipman, Jr. 1993. MacSynergy II. Version 1.0. User's manual. University of Michigan, Ann Arbor.). […] Compound 175 was selected as a representative example of the compounds of the invention for synergistic studies.

[7] = 1b (BK) NS5bΔ21, 33P-GTP incorporation, read-out: 1b polymerase IC50 (range class)
[8] = genotype 1b, read-out: 1b NS5b polymerase IC50
[9] = 72 hours, luciferase, read-out: genotype 1b EC50 (range class)

Chain of 1b (BK) NS5bΔ21 (P26663 2420-2989): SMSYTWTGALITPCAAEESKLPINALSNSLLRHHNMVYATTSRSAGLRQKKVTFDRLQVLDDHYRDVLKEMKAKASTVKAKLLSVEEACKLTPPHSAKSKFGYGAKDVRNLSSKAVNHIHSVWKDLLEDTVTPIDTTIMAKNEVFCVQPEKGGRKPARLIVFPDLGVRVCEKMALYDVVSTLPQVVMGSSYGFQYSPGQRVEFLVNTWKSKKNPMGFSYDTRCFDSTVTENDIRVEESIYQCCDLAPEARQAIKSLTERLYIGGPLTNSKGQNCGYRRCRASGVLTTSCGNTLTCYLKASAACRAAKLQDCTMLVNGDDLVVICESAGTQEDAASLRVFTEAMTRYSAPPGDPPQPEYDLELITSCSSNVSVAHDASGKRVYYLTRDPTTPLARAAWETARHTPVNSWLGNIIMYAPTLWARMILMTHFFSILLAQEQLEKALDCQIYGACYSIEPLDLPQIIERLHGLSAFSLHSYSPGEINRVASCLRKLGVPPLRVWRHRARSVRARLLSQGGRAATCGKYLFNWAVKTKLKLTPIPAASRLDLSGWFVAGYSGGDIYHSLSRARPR

Row | SMILES | IC50 [1, 7] [nM] | IC50 [1, 8] [nM] | IC50 [2] [nM] | EC50 [3, 9] [nM] | EC50 ([3]; read-out: Replicon 1b EC50) [nM] | EC50 [4] [nM] | EC50 [5] [nM] | synergy in combination with a nucleoside NS5b inhibitor ([6]; with 4-amino-7-(2-C-methyl-β-D-ribofuranosyl)-pyrrolo[2,1-f][1,2,4]triazine, FIG. 1, 95% confidence intervals) | synergy in combination with an NS5a inhibitor ([6]; with BMS-790052, daclatasvir, FIG. 3, 95% confidence intervals) | synergy in combination with a NS3/4a protease inhibitor ([6]; with VX-950, telaprevir, FIG. 2, 95% confidence intervals)
1 | CCN(c1cc2nn(-c3ccc(Cl)cc3)c(C(=O)NC)c2cc1C1CC1)S(C)(=O)=O [Compound 175] | < 990 | 100 | 30 | < 990 | 60 | 260 | 80 | statistically significant synergy | statistically significant synergy | statistically significant synergy
2 | CNC(=O)c1c2cc(C3CC3)c(N(CCCN3CCCCC3)S(C)(=O)=O)cc2nn1-c1ccc(Oc2ccc(F)cc2)cc1 [Compound 111] | 1000 to 9990 | 1170 | 260 | < 990 | 340 | 2920 | 2050 | – | – | –
3 | CNC(=O)c1c2cc(C3CC3)c(N(CCCN3CCOCC3)S(C)(=O)=O)cc2nn1-c1ccc(Br)cc1 [Compound 200] | < 990 | 220 | 40 | < 990 | 170 | 650 | 1050 | – | – | –
4 | CNC(=O)c1c2cc(C3CC3)c(N(CCCO)S(C)(=O)=O)cc2nn1-c1ccc(Nc2ccccc2F)cc1 [Compound 5, 5-cyclopropyl-2-{4-[(2-fluorophenyl)amino]phenyl}-6-[(3-hydroxypropyl)(methylsulfonyl)amino]-N-methyl-2H-indazole-3-carboxamide] | < 990 | 70 | 40 | < 990 | 130 | 50 | 320 | – | – | –
